Experimental data from PubChem BioAssay (NCI).
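All cell lines were grown in 96-well plates and treated with compound for 48 hours. GI50 marks 50% less growth. TGI: concentration producing complete growth inhibition.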

What was measured:
Assay in all cases: NCI-60 cell line screen, 48 h
MDA-MB-468 breast = test system: MDA-MB-468 breast
MALME-3M melanoma = test system: MALME-3M melanoma
HCT-15 colon = test system: HCT-15 colon
SW-620 colon = test system: SW-620 colon
KM12 colon = test system: KM12 colon
SF-268 CNS = test system: SF-268 CNS
HT29 colon = test system: HT29 colon
T-47D breast = test system: T-47D breast
A549 NSCLC = test system: A549 NSCLC
UO-31 renal = test system: UO-31 renal
SNB-19 CNS = test system: SNB-19 CNS
786-0 renal = test system: 786-0 renal
SNB-75 CNS = test system: SNB-75 CNS
PC-3 prostate = test system: PC-3 prostate
LOX IMVI melanoma = test system: LOX IMVI melanoma
RPMI-8226 leukemia = test system: RPMI-8226 leukemia
A498 renal = test system: A498 renal
OVCAR-5 ovarian = test system: OVCAR-5 ovarian
HS 578T breast = test system: HS 578T breast
OVCAR-3 ovarian = test system: OVCAR-3 ovarian
HCC-2998 colon = test system: HCC-2998 colon
SK-MEL-2 melanoma = test system: SK-MEL-2 melanoma
SK-MEL-28 melanoma = test system: SK-MEL-28 melanoma
DU-145 prostate = test system: DU-145 prostate
OVCAR-4 ovarian = test system: OVCAR-4 ovarian
SK-OV-3 ovarian = test system: SK-OV-3 ovarian
MDA-MB-231 breast = test system: MDA-MB-231 breast
ACHN renal = test system: ACHN renal

O=C(N/N=C/c1ccc(-c2ccc(O)cc2)s1)c1[nH]c2ccc(Br)cc2c1-c1ccccc1
GI50 (MDA-MB-468 breast): 2670 nM
TGI (MDA-MB-468 breast): 7.57 µM
GI50 (MALME-3M melanoma): 2410 nM
TGI (MALME-3M melanoma): 9.77 µM
GI50 (HCT-15 colon): 2720 nM
TGI (HCT-15 colon): 10.6 µM
GI50 (SW-620 colon): 4.14 µM
TGI (SW-620 colon): 15.2 µM
GI50 (KM12 colon): 2770 nM
TGI (KM12 colon): 9.53 µM
GI50 (SF-268 CNS): 5.16 µM
TGI (SF-268 CNS): 20.3 µM
GI50 (HT29 colon): 2300 nM
TGI (HT29 colon): 5.36 µM
GI50 (T-47D breast): 4.6 µM
TGI (T-47D breast): 39.4 µM
GI50 (A549 NSCLC): 4.28 µM
TGI (A549 NSCLC): 17.7 µM
GI50 (UO-31 renal): 2700 nM
TGI (UO-31 renal): 13.5 µM
GI50 (SNB-19 CNS): 4.01 µM
TGI (SNB-19 CNS): 14 µM
GI50 (786-0 renal): 2160 nM
TGI (786-0 renal): 9.19 µM
GI50 (SNB-75 CNS): 3.27 µM
TGI (SNB-75 CNS): 12.4 µM
GI50 (PC-3 prostate): 3.17 µM
TGI (PC-3 prostate): 13.9 µM
GI50 (LOX IMVI melanoma): 2000 nM
TGI (LOX IMVI melanoma): 5.51 µM
GI50 (RPMI-8226 leukemia): 3.14 µM
TGI (RPMI-8226 leukemia): > 100 µM
GI50 (A498 renal): 5.57 µM
TGI (A498 renal): 18.9 µM
GI50 (OVCAR-5 ovarian): 5.15 µM
TGI (OVCAR-5 ovarian): 17.2 µM
GI50 (HS 578T breast): 3.02 µM
TGI (HS 578T breast): 14.1 µM
GI50 (OVCAR-3 ovarian): 3.38 µM
TGI (OVCAR-3 ovarian): 13.6 µM
GI50 (HCC-2998 colon): 3.16 µM
TGI (HCC-2998 colon): 10.6 µM
GI50 (SK-MEL-2 melanoma): 3.45 µM
TGI (SK-MEL-2 melanoma): 12.2 µM
GI50 (SK-MEL-28 melanoma): 3.22 µM
TGI (SK-MEL-28 melanoma): 11.8 µM
GI50 (DU-145 prostate): 4.48 µM
TGI (DU-145 prostate): 15.7 µM
GI50 (OVCAR-4 ovarian): 3.52 µM
TGI (OVCAR-4 ovarian): 14.1 µM
GI50 (SK-OV-3 ovarian): 12.2 µM
TGI (SK-OV-3 ovarian): 27.8 µM
GI50 (MDA-MB-231 breast): 3.36 µM
TGI (MDA-MB-231 breast): 11.5 µM
GI50 (ACHN renal): 2920 nM
